What was measured:
[1] = Solubility of ultraviolet absorbent in N,N-dimethylacetamide at 25° C.; format: physicochemical
[2] = Molar extinction coefficient of ultraviolet absorbent in 20 mg/L toluene solution; format: physicochemical
Description: (manufactured by JASCO Corporation) Measured Concentration: 20 mg/L Solvent: toluene

SMILES | Solubility at 25° C. with respect to DMAc [1] | Molar extinction coefficient 360 nm [2] | Molar extinction coefficient 370 nm [2] | Molar extinction coefficient 380 nm [2] | Molar extinction coefficient 390 nm [2] | Molar extinction coefficient 400 nm [2] | Molar extinction coefficient 420 nm [2]
CC(C)(C)CC(C)(C)c1cc(Cc2cc(C(C)(C)CC(C)(C)C)cc(-n3nc4ccccc4n3)c2O)c(O)c(-n2nc3ccccc3n2)c1 [LA31, 2,2′-methylenebis[6-(2H-benzotriazole-2-yl)-4-(1,1,3,3-tetramethylbutyl)phenol]] | >10 g/100 g-DMAc | 27,300 L/mol · cm | 19,800 L/mol · cm | 9,000 L/mol · cm | 1,400 L/mol · cm | <50 L/mol/cm | <50 L/mol/cm
CCC(C)(C)c1cc(-n2nc3ccccc3n2)c(O)c(C(C)(C)CC)c1 [Sumisorb 350, 2-(2-hydroxy-3,5-di-tert-pentylphenyl)benzotriazole] | >10 g/100 g-DMAc | 13,900 L/mol · cm | 9,700 L/mol · cm | 4,800 L/mol · cm | 1,200 L/mol · cm | 210 L/mol/cm | <50 L/mol/cm
CCCCC(CC)C(=O)OCCOc1ccc(-c2nc(-c3ccccc3)nc(-c3ccccc3)n2)c(O)c1 (stereo not shown) [LA46, 2-(4,6-diphenyl-1,3,5-triazine-2-yl)-5-[2-(2-ethylhexanoyloxy)ethoxy]phenol] | >10 g/100 g-DMAc | 10000 L/mol/cm | 3,000 L/mol · cm | 160 L/mol/cm | <50 L/mol/cm | <30 L/mol/cm | <30 L/mol/cm
CC(C)(C)CC(C)(C)c1ccc(O)c(-n2nc3ccccc3n2)c1 [Sumisorb 340, 2-(2-hydroxy-5-tert-octylphenyl)benzotriazole] | >10 g/100 g-DMAc | 13,100 L/mol · cm | 7,700 L/mol · cm | 2,200 L/mol · cm | 320 L/mol/cm | <50 L/mol/cm | <50 L/mol/cm

— patent US20170329062A1, “OPTICAL FILM AND FLEXIBLE DEVICE USING THE OPTICAL FILM” (SUMITOMO CHEMICAL COMPANY, LIMITED, priority 2016, published 2017)
